Starred links: 1 amine or outer side, 2 acyl side, 3 side chain; linkers in the order of their positions; H or OH if unused. Positions of bridges follow the written chain, without caps; N, C: chain ends. Non-standard residues stand in square brackets, D forms with d. Residues, ends and D or L forms follow the SMILES beside them. *: point of attachment. NMeAbu(3,3-F2-piperidino) = CN[C@@H](CCN1CCCC(F)(F)C1)C(=O)O; hPhe(3-Cl-4-CF3) = N[C@@H](CCc1ccc(C(F)(F)F)c(Cl)c1)C(=O)O; hPhe(3-F,4-CF3) = N[C@@H](CCc1ccc(C(F)(F)F)c(F)c1)C(=O)O; hPhe(4-CF3) = N[C@@H](CCc1ccc(C(F)(F)F)cc1)C(=O)O; NMePhe(4-Cl) = CN[C@@H](Cc1ccc(Cl)cc1)C(=O)O; NMePhe(4-Me) = CN[C@@H](Cc1ccc(C)cc1)C(=O)O; X33 = Cc1ccc(CC[C@H](N[*:1])C(=O)[*:2])cc1; NMeGly(cPent) = CN[C@H](C(=O)O)C1CCCC1; NMeCha = CN[C@@H](CC1CCCCC1)C(=O)O; NMeChg = CN[C@H](C(=O)O)C1CCCCC1; NMeF = CN[C@@H](Cc1ccccc1)C(=O)O; NMeI = CC[C@H](C)[C@H](NC)C(=O)O; NMeD = CN[C@@H](CC(=O)O)C(=O)O; NMeL = CN[C@@H](CC(C)C)C(=O)O; NMeNva = CCC[C@H](NC)C(=O)O; NMeV = CN[C@H](C(=O)O)C(C)C; d(β3hA) = C[C@@H](N)CC(=O)O; Iva = CC[C@](C)(N)C(=O)O; NMeA = CN[C@@H](C)C(=O)O; Piperidide = C1CCN(*)CC1; Pyrrolidide = C1CCN(*)C1; dNMeA = CN[C@H](C)C(=O)O; Ac5c = NC1(C(=O)O)CCCC1; Aze = O=C(O)[C@@H]1CCN1; Sar = CNCC(=O)O
Molecular target: T1, Kras and SOS1 (biotin-tagged human Kras loaded with GDP, His-tagged human SOS1) (Homo sapiens, UniProt P01116, G12D)
T1 construct: made in house; host or cells: E. coli (stated for Kras only)
Test: Protein-protein interaction inhibition between Kras and SOS1 (KrasGl2D-SOS PPI) using AlphaScreen
Type: binding
Conditions: AlphaScreen; biotin-tagged human Kras loaded with GDP, His-tagged human SOS1; read-out: KRAS G12D-SOS PPI IC50
How it was run: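 Donor beads (nickel) hold His-SOS1; acceptor beads (streptavidin) hold biotin-Kras bound to GDP. Signal measured at 520-620 nm following 680 nm excitation.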

T1 sequence (P01116 1-188 isoform P01116-2 G12D): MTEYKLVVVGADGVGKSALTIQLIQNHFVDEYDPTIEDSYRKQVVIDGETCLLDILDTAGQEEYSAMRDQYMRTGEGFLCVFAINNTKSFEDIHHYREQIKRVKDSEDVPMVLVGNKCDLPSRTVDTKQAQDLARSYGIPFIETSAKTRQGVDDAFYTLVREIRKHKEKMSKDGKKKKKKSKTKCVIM

SMILES | IC50
CC[C@H](C)[C@@H]1NC(=O)[C@H](CC(C)C)N(C)C(=O)C[C@@H](C(=O)N(C)C)N(C)C(=O)[C@H]([C@@H](C)CC)N(C)C(=O)[C@H](C)NC(=O)[C@@H](C)NC(=O)[C@H](CCc2ccc(C(F)(F)F)c(Cl)c2)NC(=O)CN(C)C(=O)[C@H](Cc2ccc(C)cc2)N(C)C(=O)[C@@H]2CCN2C(=O)[C@H](C)N(C)C1=O [Compound 382] ([NMeL]I[NMeA][Aze][NMePhe(4-Me)][Sar][hPhe(3-Cl-4-CF3)][dA]A[NMeI][NMeD]-NMe2; lactam N-11) | 35 nM
CC[C@H](C)[C@@H]1NC(=O)[C@H](C)N(C)C(=O)C[C@@H](C)NC(=O)[C@H](CC(C)C)N(C)C(=O)[C@H](CC2CCCCC2)N(C)C(=O)[C@@H]2CCCN2C(=O)[C@H](CCc2ccc(C(F)(F)F)cc2)NC(=O)CN(C)C(=O)[C@H](Cc2ccc(Cl)cc2)N(C)C(=O)CN(C)C(=O)CN(C)C1=O [Compound 383] (cyclo(I[Sar][Sar][NMePhe(4-Cl)][Sar][hPhe(4-CF3)]P[NMeCha][NMeL][d(β3hA)][NMeA])) | 260 nM
CC[C@H](C)[C@@H]1NC(=O)[C@H](CC(C)C)N(C)C(=O)C[C@@H](C(=O)N(C)C)N(C)C(=O)[C@H](C2CCCC2)N(C)C(=O)[C@H](C(C)C)NC(=O)[C@H](CCN2CCCC(F)(F)C2)N(C)C(=O)[C@H](CCc2ccc(C(F)(F)F)c(Cl)c2)NC(=O)CN(C)C(=O)[C@H](CC2CCCCC2)N(C)C(=O)[C@@H]2CCN2C(=O)[C@H](C)N(C)C1=O [Compound 389] ([NMeL]I[NMeA][Aze][NMeCha][Sar][hPhe(3-Cl-4-CF3)][NMeAbu(3,3-F2-piperidino)]V[NMeGly(cPent)][NMeD]-NMe2; lactam N-11) | 45 nM
CCC[C@H]1C(=O)N[C@@H]([C@@H](C)CC)C(=O)N(C)[C@@H](C)C(=O)N2CC[C@H]2C(=O)N(C)[C@@H](CC2CCCCC2)C(=O)N(C)CC(=O)N[C@@H](CCc2ccc(C(F)(F)F)c(Cl)c2)C(=O)N2CCC[C@H]2C(=O)NC2(CCCC2)C(=O)N(C)[C@@H](C2CCCC2)C(=O)N(C)[C@H](C(=O)N2CCCCC2)CC(=O)N1C [Compound 391, (5S,8S,11S,15S,18S,23aS,29S,35S,37aS)-8-((S)-sec-butyl)-29-(3-chloro-4-(trifluoromethyl)phenethyl)-35-(cyclohexylmethyl)-18-cyclopentyl-5,6,12,16,19,33,36-heptamethyl-15-(piperidine-1-carbonyl)-11-propyldocosahydro-2H,4H-spiro[azeto[2,1-u]pyrrolo[2,1-i][1,4,7,10,13,16,19,22,25,28,31]undecaazacyclotetratriacontine-21,1′-cyclopentan]-4,7,10,13,17,20,23,28,31,34,37(14H,22H)-undecaone] ([NMeNva]I[NMeA][Aze][NMeCha][Sar][hPhe(3-Cl-4-CF3)]P[Ac5c][NMeGly(cPent)][NMeD]-Piperidide; lactam N-11) | 0.4 nM
CCC[C@H]1C(=O)NC2(CCCC2)C(=O)N(C)[C@@H](C2CCCCC2)C(=O)N(C)[C@H](C(=O)N2CCCCC2)CC(=O)N(C)[C@@H](CC(C)C)C(=O)N[C@@H]([C@@H](C)CC)C(=O)N(C)CC(=O)N2CCC[C@H]2C(=O)N(C)[C@@H](CC2CCCCC2)C(=O)N(C)CC(=O)N[C@@H](CCc2ccc(C(F)(F)F)c(Cl)c2)C(=O)N1C [Compound 392] ([NMeL]I[Sar]P[NMeCha][Sar][hPhe(3-Cl-4-CF3)][NMeNva][Ac5c][NMeChg][NMeD]-Piperidide; lactam N-11) | 12 nM
CC[C@H](C)[C@@H]1NC(=O)[C@H](CC(C)C)N(C)C(=O)C[C@@H](C(=O)N2CCCCC2)N(C)C(=O)[C@H](C(C)C)N(C)C(=O)[C@](C)(CC)NC(=O)[C@@H]2CCCN2C(=O)[C@H](CCc2ccc(C(F)(F)F)c(Cl)c2)NC(=O)CN(C)C(=O)[C@H](CC2CCCCC2)N(C)C(=O)[C@@H]2CCN2C(=O)[C@H](C)N(C)C1=O [Compound 394] ([NMeL]I[NMeA][Aze][NMeCha][Sar][hPhe(3-Cl-4-CF3)]P[Iva][NMeV][NMeD]-Piperidide; lactam N-11) | 13 nM
CC[C@H](C)[C@@H]1NC(=O)[C@H](C)N(C)C(=O)C[C@@H](C)NC(=O)[C@H](C2CCCC2)N(C)C(=O)C2(CCCC2)NC(=O)[C@@H]2CCCN2C(=O)[C@H](CCc2ccc(C(F)(F)F)c(Cl)c2)NC(=O)[C@@H](C)N(C)C(=O)[C@H](C)N(C)C(=O)[C@@H]2CCN2C(=O)[C@H](C)N(C)C1=O [Compound 396] (cyclo([Ac5c][NMeGly(cPent)][d(β3hA)][NMeA]I[NMeA][Aze][NMeA][dNMeA][hPhe(3-Cl-4-CF3)]P)) | 220 nM
CC[C@H](C)[C@@H]1NC(=O)[C@H](C)N(C)C(=O)C[C@@H](C(=O)N2CCCC2)NC(=O)[C@H](CC(C)C)N(C)C(=O)[C@H](Cc2ccccc2)N(C)C(=O)[C@H](CC(C)C)NC(=O)[C@H](CCc2ccc(C)cc2)NC(=O)CN(C)C(=O)[C@H](Cc2ccc(Cl)cc2)N(C)C(=O)CN(C)C(=O)CN(C)C1=O [Compound 398] ([NMeA]I[Sar][Sar][NMePhe(4-Cl)][Sar][X33]L[NMeF][NMeL]D-Pyrrolidide; lactam N-11) | 120 nM
CC[C@H](C)[C@@H]1NC(=O)[C@H](CC(C)C)N(C)C(=O)C[C@@H](C)NC(=O)[C@H](CC(C)C)N(C)C(=O)C2(CCCC2)NC(=O)[C@@H]2CCCN2C(=O)[C@H](CCc2ccc(C(F)(F)F)c(F)c2)NC(=O)CN(C)C(=O)[C@H](CC2CCCCC2)N(C)C(=O)CN(C)C(=O)CN(C)C1=O [Compound 402] (cyclo([Ac5c][NMeL][d(β3hA)][NMeL]I[Sar][Sar][NMeCha][Sar][hPhe(3-F,4-CF3)]P)) | 26 nM

Reference: US12371454B2, “Cyclic peptide compound having Kras inhibitory action” (priority 2019, dated 2025)
